ChEMBL document CHEMBL4680342, “Discovery of DB18, a potent inhibitor of CLK kinases with a high selectivity against DYRK1A kinase” (Bioorg Med Chem, 2021)
pIC50: −log10 of the molar value.

How the values were obtained:
[1] = test system: Huh-7; assay: cells; conditions: Homo sapiens, Huh-7, 48 h
[2] = test system: Caco-2; assay: cells; conditions: Homo sapiens, Caco-2, 48 h
[3] = test system: MDA-MB-231; assay: cells; conditions: Homo sapiens, MDA-MB-231, 48 h
Description: Cytotoxicity against human MDA-MB-231 cells assessed as reduction in cell viability incubated for 48 hrs by Hoechst-33342 staining based cell counting method (Rvb > 25 microM)

[4] = test system: PC-3; assay: cells; conditions: Homo sapiens, PC-3, 48 h
Description: Cytotoxicity against human PC-3 cells assessed as reduction in cell viability incubated for 48 hrs by Hoechst-33342 staining based cell counting method (Rvb > 25 microM)

[5] = test system: Fibroblast; assay: cells; conditions: Homo sapiens, 48 h
Description: Cytotoxicity against human Fibroblast cells assessed as reduction in cell viability incubated for 48 hrs by Hoechst-33342 staining based cell counting method (Rvb > 25 microM)

[6] = biological target: Cyclin-dependent kinase 5/CDK5 activator 1 (Homo sapiens) (UniProt Q00535+Q15078); assay: Inhibition of human CDK5/p25 assessed as residual activity at 10 uM by ADP-Glo assay relative to control; type: protein-complex assay
[7] = biological target: CDK9/cyclin T1 (Homo sapiens) (UniProt O60563+P50750); assay: Inhibition of human CDK9/CyclinT assessed as residual activity at 10 uM by ADP-Glo assay relative to control; type: protein-complex assay
[8] = biological target: Serine/threonine-protein kinase pim-1 (Homo sapiens) (UniProt P11309); assay: Inhibition of human PIM1 assessed as residual activity at 10 uM by ADP-Glo assay relative to control
[9] = biological target: Dual specificity protein kinase CLK1 (Mus musculus) (UniProt P22518); assay: Inhibition of mouse CLK1 assessed as residual activity at 10 uM by ADP-Glo assay relative to control
[10] = biological target: DYRK1A (dual specificity tyrosine-phosphorylation-regulated kinase 1A) (Rattus norvegicus, UniProt Q63470); assay: Inhibition of rat DYRK1A (1 to 499 residues) assessed as residual activity at 10 uM by ADP-Glo assay relative to control; conditions: rat DYRK1A enzyme (residues 1 to 499), read-out: Activity
[11] = biological target: T1, Serine/threonine-protein kinase haspin (Homo sapiens) (UniProt Q8TF76); assay: Inhibition of human HASPIN assessed as residual activity at 10 uM by ADP-Glo assay relative to control
T1 sequence (whole entry): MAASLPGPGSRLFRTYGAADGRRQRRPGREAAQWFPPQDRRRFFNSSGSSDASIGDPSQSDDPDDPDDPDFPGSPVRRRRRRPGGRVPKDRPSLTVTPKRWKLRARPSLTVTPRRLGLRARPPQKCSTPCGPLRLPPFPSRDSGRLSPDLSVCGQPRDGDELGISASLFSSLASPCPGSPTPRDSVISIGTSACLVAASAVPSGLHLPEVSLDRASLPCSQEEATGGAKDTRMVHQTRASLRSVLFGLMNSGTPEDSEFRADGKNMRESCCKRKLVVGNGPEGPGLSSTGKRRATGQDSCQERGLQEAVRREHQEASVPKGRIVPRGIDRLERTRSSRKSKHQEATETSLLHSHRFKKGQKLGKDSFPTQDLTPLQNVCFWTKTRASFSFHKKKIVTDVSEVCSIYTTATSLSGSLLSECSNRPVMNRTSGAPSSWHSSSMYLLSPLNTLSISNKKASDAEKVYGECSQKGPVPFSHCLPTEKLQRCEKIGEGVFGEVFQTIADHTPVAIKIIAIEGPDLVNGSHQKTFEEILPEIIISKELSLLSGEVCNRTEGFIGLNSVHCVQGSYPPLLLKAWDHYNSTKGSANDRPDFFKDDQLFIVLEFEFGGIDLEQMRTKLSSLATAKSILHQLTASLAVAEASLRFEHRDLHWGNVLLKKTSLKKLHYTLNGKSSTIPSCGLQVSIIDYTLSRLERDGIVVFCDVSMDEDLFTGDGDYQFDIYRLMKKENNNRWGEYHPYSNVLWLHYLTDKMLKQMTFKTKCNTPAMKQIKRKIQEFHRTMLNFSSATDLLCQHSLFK

[12] = biological target: Glycogen synthase kinase-3 beta (Homo sapiens) (UniProt P49841); assay: Inhibition of human GSK3beta assessed as residual activity at 10 uM by ADP-Glo assay relative to control
[13] = biological target: Casein kinase I isoform epsilon (Homo sapiens) (UniProt P49674); assay: Inhibition of human CK1epsilon assessed as residual activity at 10 uM by ADP-Glo assay relative to control
[14] = test system: HCT-116; assay: cells; conditions: Homo sapiens, HCT-116, 48 h
Description: Cytotoxicity against human HCT-116 cells assessed as reduction in cell viability incubated for 48 hrs by Hoechst-33342 staining based cell counting method (Rvb > 25 microM)

[15] = test system: NCI-H727; assay: cells; conditions: Homo sapiens, NCI-H727, 48 h
Description: Cytotoxicity against human NCI-H727 cells assessed as reduction in cell viability incubated for 48 hrs by Hoechst-33342 staining based cell counting method (Rvb > 25 microM)

[16] = test system: MCF7; assay: cells; conditions: Homo sapiens, MCF7, 48 h
[17] = biological target: Dual specificity protein kinase CLK1 (Mus musculus) (UniProt P22518); assay: Inhibition of mouse CLK1 assessed as residual activity by ADP-Glo assay
[18] = biological target: Dual specificity tyrosine-phosphorylation-regulated kinase 1A (Homo sapiens, UniProt Q13627); assay: Inhibition of human DYRK1A at 100 uM by ADP-Glo assay
[19] = biological target: Dual specificity tyrosine-phosphorylation-regulated kinase 1B (Homo sapiens, UniProt Q9Y463); assay: Inhibition of human DYRK1B at 100 uM by ADP-Glo assay
[20] = biological target: T2, Dual specificity tyrosine-phosphorylation-regulated kinase 2 (Homo sapiens, UniProt Q92630); assay: Inhibition of human DYRK2 at 100 uM by ADP-Glo assay
T2 sequence (Q92630 whole entry): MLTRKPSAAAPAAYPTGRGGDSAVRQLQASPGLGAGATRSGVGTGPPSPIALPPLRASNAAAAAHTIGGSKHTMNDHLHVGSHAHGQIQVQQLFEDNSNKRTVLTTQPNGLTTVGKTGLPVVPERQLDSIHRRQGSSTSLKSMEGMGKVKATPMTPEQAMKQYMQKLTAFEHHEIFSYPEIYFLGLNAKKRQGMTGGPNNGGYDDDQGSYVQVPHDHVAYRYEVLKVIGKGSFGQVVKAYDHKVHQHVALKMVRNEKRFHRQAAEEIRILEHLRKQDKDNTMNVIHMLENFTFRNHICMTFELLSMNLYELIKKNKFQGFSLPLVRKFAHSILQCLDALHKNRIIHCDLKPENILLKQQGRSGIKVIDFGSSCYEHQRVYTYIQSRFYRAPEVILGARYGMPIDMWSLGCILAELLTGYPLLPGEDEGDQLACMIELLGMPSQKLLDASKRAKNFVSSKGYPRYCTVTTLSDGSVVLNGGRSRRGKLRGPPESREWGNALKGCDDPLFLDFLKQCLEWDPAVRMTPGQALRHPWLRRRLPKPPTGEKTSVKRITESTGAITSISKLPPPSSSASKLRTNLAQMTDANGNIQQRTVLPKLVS

[21] = biological target: Dual specificity tyrosine-phosphorylation-regulated kinase 1A (Rattus norvegicus, UniProt Q63470); assay: Inhibition of rat DYRK1A (1 to 499 residues) assessed as residual activity at 100 uM by ADP-Glo assay

Chain of Serine/threonine-protein kinase pim-1 (Homo sapiens) (P11309 whole entry, looked up): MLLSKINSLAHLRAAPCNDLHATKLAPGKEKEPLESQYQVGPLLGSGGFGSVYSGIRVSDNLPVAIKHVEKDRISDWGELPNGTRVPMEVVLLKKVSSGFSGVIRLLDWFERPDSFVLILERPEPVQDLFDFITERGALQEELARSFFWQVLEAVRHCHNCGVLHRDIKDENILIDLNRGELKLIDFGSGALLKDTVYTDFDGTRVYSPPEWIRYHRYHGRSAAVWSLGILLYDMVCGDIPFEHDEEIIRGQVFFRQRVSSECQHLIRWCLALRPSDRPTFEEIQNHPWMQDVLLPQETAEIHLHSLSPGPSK
Chain of Casein kinase I isoform epsilon (Homo sapiens) (P49674 whole entry, looked up, canonical isoform): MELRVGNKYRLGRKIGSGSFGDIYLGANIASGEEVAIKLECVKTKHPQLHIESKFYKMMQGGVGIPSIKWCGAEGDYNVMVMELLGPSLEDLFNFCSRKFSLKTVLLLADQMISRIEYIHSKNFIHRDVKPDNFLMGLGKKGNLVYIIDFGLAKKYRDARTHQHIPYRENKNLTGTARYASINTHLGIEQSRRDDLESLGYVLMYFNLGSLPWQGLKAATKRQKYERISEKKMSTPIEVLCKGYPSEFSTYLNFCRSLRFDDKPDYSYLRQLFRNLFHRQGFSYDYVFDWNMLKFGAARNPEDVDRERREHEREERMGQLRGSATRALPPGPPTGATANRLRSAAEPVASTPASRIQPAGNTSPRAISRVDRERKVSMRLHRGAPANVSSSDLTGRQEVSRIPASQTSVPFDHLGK
Chain of Glycogen synthase kinase-3 beta (Homo sapiens) (P49841 whole entry, looked up, canonical isoform): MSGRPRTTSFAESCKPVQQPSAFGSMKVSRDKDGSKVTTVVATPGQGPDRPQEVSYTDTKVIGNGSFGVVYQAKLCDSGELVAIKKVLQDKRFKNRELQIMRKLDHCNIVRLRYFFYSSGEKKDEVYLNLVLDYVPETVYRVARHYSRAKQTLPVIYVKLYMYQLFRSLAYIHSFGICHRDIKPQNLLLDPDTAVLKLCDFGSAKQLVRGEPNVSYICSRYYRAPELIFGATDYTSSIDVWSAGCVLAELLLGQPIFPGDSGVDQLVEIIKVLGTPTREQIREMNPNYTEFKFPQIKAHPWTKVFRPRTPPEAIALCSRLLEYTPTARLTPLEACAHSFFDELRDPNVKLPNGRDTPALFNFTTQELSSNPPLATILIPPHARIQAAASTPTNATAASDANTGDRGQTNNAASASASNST
Chain of Cyclin-dependent kinase 5/CDK5 activator 1 (Homo sapiens) (Q00535 whole entry): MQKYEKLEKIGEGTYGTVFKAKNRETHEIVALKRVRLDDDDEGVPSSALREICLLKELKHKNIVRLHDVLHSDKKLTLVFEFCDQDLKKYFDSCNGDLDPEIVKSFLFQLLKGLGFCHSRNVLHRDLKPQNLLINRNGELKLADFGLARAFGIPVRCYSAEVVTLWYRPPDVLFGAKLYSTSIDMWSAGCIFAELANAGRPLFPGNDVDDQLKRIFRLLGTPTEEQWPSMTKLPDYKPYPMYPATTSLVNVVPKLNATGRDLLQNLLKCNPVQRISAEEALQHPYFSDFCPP
Chain of Cyclin-dependent kinase 5/CDK5 activator 1 (Homo sapiens) (Q15078 99-307 partner limits assumed): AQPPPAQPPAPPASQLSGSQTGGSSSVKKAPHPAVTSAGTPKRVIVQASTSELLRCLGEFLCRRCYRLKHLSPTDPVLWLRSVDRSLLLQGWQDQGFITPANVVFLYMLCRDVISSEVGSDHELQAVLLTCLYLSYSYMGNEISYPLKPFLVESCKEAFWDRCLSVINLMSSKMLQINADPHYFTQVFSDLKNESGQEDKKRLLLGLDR
Chain of Dual specificity protein kinase CLK1 (Mus musculus) (P22518 whole entry, looked up, the tested form may be a part): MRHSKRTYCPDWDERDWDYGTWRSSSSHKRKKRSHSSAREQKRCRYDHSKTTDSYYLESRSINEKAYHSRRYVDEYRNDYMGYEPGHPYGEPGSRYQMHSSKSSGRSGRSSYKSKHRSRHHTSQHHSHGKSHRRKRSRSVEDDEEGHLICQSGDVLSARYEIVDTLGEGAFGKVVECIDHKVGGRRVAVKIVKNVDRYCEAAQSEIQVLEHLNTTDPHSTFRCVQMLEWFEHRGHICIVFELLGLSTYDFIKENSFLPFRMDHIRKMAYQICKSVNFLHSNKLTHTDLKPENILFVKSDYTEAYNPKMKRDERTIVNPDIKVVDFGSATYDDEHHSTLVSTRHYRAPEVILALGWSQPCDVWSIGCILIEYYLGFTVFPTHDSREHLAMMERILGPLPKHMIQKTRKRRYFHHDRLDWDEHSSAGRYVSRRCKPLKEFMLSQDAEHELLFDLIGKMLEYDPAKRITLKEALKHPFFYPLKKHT
Chain of Dual specificity tyrosine-phosphorylation-regulated kinase 1B (Q9Y463 whole entry): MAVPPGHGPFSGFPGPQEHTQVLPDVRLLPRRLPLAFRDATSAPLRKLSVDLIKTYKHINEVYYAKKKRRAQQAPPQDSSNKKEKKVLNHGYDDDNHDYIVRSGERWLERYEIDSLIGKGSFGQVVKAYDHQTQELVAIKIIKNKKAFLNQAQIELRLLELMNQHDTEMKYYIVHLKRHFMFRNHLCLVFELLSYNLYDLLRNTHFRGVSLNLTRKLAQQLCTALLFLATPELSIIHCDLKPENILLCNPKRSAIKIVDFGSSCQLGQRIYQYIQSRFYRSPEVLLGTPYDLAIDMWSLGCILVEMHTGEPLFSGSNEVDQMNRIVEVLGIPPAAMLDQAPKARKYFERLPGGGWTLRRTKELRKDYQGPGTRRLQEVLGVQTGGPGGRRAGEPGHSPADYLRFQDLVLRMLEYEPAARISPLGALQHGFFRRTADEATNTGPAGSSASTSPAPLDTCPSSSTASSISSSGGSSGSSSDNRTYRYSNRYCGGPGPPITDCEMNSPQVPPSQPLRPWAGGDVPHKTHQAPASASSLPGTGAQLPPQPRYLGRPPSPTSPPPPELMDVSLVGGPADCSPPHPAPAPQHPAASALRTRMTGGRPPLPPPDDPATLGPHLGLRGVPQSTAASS

Row | pIC50 [1] | pIC50 [2] | pIC50 [3] | pIC50 [4] | Activity [6] [%] | Activity [7] [%] | Activity [8] [%] | Activity [9] [%] | activity at 10 µM [10] [%] | Activity [11] [%] | Activity [12] [%] | Activity [13] [%] | pIC50 [14] | pIC50 [15] | pIC50 [16] | Compound | pIC50 [5] | further results
1 | 4.85 | 4.96 | 4.48 | 4.74 | 100 | 81 | 79 | 56 | 95 | 100 | 77 | 79 | 4.77 | 5.10 | 5.05 | Clc1cccc(Nc2ncc3cccc(OCc4cn(-c5ccc(Br)cc5)nn4)c3n2)c1 | < 4.60 | –
2 | – | – | – | – | 40 | 25 | 45 | 16 | 74 | 44 | 14 | 41 | – | – | – | Cc1ccc(-n2cc(COc3cccc4cnc(Nc5cccc(Cl)c5)nc34)nn2)cc1[N+](=O)[O-] | – | pIC50 [17]: 5.52
3 | – | – | – | – | 84 | 54 | 81 | 11 | – | 94 | – | – | – | – | – | Cc1ccc(-n2cc(COc3cccc4cnc(Nc5cccc(Cl)c5)nc34)nn2)c([N+](=O)[O-])c1 | – | inhibition (INH) [18]: Not Active; inhibition (INH) [19]: Not Active; inhibition (INH) [20]: Not Active; inhibition (INH) [21]: Not Active; pIC50 [17]: 6.92
4 | – | – | – | – | 90 | 72 | 77 | 39 | 88 | 76 | 60 | 65 | – | – | – | O=[N+]([O-])c1ccc(Cn2cc(COc3cccc4cnc(Nc5cccc(Cl)c5)nc34)nn2)cc1 | – | –
5 | – | – | – | – | 94 | 63 | 79 | 26 | 100 | 100 | 87 | 86 | – | – | – | O=[N+]([O-])c1ccc(-n2cc(COc3cccc4cnc(Nc5cccc(Cl)c5)nc34)nn2)cc1 | – | –
6 | – | – | – | – | 100 | 100 | 69 | 70 | 94 | 100 | 47 | 86 | – | – | – | COc1ccc(-n2cc(COc3cccc4cnc(Nc5cccc(Cl)c5)nc34)nn2)cc1 | – | –
7 | 4.62 | 4.62 | < 4.60 | < 4.60 | 100 | 95 | 86 | 85 | 99 | 100 | 87 | 100 | < 4.60 | < 4.60 | < 4.60 | Clc1ccc(-n2cc(COc3cccc4cnc(Nc5cccc(Cl)c5)nc34)nn2)cc1 | < 4.60 | –

More lines, now with the values behind:

Row | Compound | pIC50 [1] | pIC50 [2] | pIC50 [3] | pIC50 [4] | Activity [6] [%] | Activity [7] [%] | Activity [8] [%] | Activity [9] [%] | activity at 10 µM [10] [%] | Activity [11] [%] | Activity [12] [%] | Activity [13] [%] | pIC50 [14] | pIC50 [15] | pIC50 [16] | pIC50 [5] | further results
8 | COc1cccc2c1C(=O)c1c(O)c3c(c(O)c1C2=O)C[C@@](O)(C(=O)CO)C[C@@H]3O[C@H]1C[C@H](N)[C@H](O)[C@H](C)O1 [DOXORUBICIN] | 7.44 | 7.30 | 8.00 | 7.22 | – | – | – | – | – | – | – | – | – | – | – | 7.82 | –
9 | CC[C@H](CO)Nc1nc(NCc2ccccc2)c2ncn(C(C)C)c2n1 [SELICICLIB] | 4.85 | – | – | – | – | – | – | – | – | – | – | – | – | 4.55 | 5.05 | 5.22 | –
10 | Clc1cccc(Nc2ncc3cccc(OCc4cn(Cc5c(Cl)cccc5Cl)nn4)c3n2)c1 | 5.15 | 5.05 | 4.68 | 5.15 | 94 | 53 | 97 | 48 | 75 | 59 | 58 | 100 | 4.62 | 5.30 | 5.22 | 4.85 | –
11 | COc1cccc(-n2cc(COc3cccc4cnc(Nc5cccc(Cl)c5)nc34)nn2)c1 | 4.64 | 4.70 | 4.60 | 5.00 | 94 | 85 | 79 | 27 | 87 | 100 | 47 | 40 | 4.64 | < 4.60 | 5.10 | 4.74 | –
12 | COc1ccccc1-n1cc(COc2cccc3cnc(Nc4cccc(Cl)c4)nc23)nn1 | 5.15 | < 4.60 | < 4.60 | 5.10 | 94 | 74 | 84 | 26 | 100 | 100 | 61 | 96 | < 4.60 | < 4.60 | 5.22 | < 4.60 | –
13 | Clc1cccc(Nc2ncc3cccc(OCc4cn(-c5cc(Cl)cc(Cl)c5)nn4)c3n2)c1 | 5.15 | 5.10 | 5.05 | 5.10 | 90 | 64 | 78 | 81 | 100 | 77 | 35 | 55 | 5.10 | 5.15 | 5.30 | 5.10 | –
14 | CC(=O)O[C@H]1C(=O)[C@@]2(C)[C@H]([C@H](OC(=O)c3ccccc3)[C@]3(O)C[C@H](OC(=O)[C@H](O)[C@@H](NC(=O)c4ccccc4)c4ccccc4)C(C)=C1C3(C)C)[C@]1(OC(C)=O)CO[C@@H]1C[C@@H]2O [PACLITAXEL] | 7.89 | 7.85 | 7.52 | 8.70 | – | – | – | – | – | – | – | – | 8.70 | 8.00 | – | 7.00 | –
15 | Clc1cccc(Nc2ncc3cccc(OCc4cn(Cc5ccccc5)nn4)c3n2)c1 | – | – | – | – | 87 | 100 | 84 | 65 | 81 | 83 | 48 | 79 | – | – | – | – | –
